According to paper PMC8880098, “Synthesis, Antibacterial Evaluation, and Computational Studies of a Diverse Set of Linezolid Conjugates” (Pharmaceuticals, 2022):
≈ marks a conversion by molar mass, not a printed value. Where two headings read alike, the source gives them in different places.

Experiments:
[1] = test system: Bacillus subtilis ATCC 6633; experiment: microbe, parasite or virus in culture; design: species or system bacteria; Broth microdilution MIC in Mueller-Hinton broth, absorbance at 620 nm; conditions: ATCC6633, 24 h, read-out: Observed MIC, uM (B. subtilis)
Description: (§1) Antibacterial properties of the synthesized compounds (3a–k, 5a–f, 7a–c, 9a–c, 11a–f, 13 and 15) were screened against Gram-positive (Staphylococcus aureus ATCC 6538, Bacillus subtilis ATCC 6633) and Gram-negative (Pseudomonas aeruginosa ATCC 15,692 and Escherichia coli ATCC 47076) bacteria utilizing the standard technique. Linezolid was used as a standard reference/drug in the current study. The tested bacterial strains were obtained from MERCIN Center, Faculty of Agriculture, Ain Shams University, Cairo, Egypt. To determine the antibacterial activity, stock solutions of the tested compounds and standard reference were prepared with up to 100% DMSO and stored at […]. If necessary, the solutions were heated to 40–60 °C before testing to facilitate complete dissolution. Double distilled water was used in all dilutions prepared. […] A microdilution susceptibility test was used for MIC determination (Mueller–Hinton broth in 96-well plates) according to the CLSI (the Clinical and Laboratory Standards Institute, Malvern, PA, USA). The bacterial inoculum was adjusted to approximately 2.5–3 × 10^4 cells/mL in Mueller–Hinton broth and incubated in a ratio of 1:1 with the test derivatives in polystyrene 96-well flat-bottom microplates. Positive growth control (without test derivatives) and negative control (without bacteria) were included. The microplates were placed in an incubator set to 37 °C for 24 h. Absorbance was measured at 620 nm at the end of the incubation period. The cut-off level for follow-up studies was defined as a minimum of 90% inhibition of growth compared to the untreated sample. Experiments were conducted once in triplicate. For selected compounds, minimum inhibitory concentration (MIC) values were determined by dose–response experiments. Experiments were performed at least twice, in triplicate per concentration tested.

[2] = test system: Staphylococcus aureus ATCC 6538; experiment: microbe, parasite or virus in culture; design: species or system bacteria; Broth microdilution MIC in Mueller-Hinton broth, absorbance at 620 nm; conditions: ATCC6538, 24 h, read-out: Observed MIC, uM (S. aureus)
Description: as §1

[3] = test system: Bacillus subtilis ATCC 6633; experiment: Antibacterial MIC, microdilution susceptibility test (CLSI); assay type: cell-based; conditions: Bacillus subtilis
Description: (§2) The synthesized linezolid conjugates (3a–k, 5a–f, 7a–c, 9a–c, 11a–f, 13, and 15) were subjected for antimicrobial properties determination against Gram-positive (Staphylococcus aureus ATCC 6538, Bacillus subtilis ATCC 6633) and Gram-negative (Pseudomonas aeruginosa ATCC 15692, Escherichia coli ATCC 47076) bacteria by the standard technique.
(§3) Antibacterial properties of the synthesized compounds (3a–k, 5a–f, 7a–c, 9a–c, 11a–f, 13 and 15) were screened against Gram-positive (Staphylococcus aureus ATCC 6538, Bacillus subtilis ATCC 6633) and Gram-negative (Pseudomonas aeruginosa ATCC 15,692 and Escherichia coli ATCC 47076) bacteria utilizing the standard technique. Linezolid was used as a standard reference/drug in the current study. The tested bacterial strains were obtained from MERCIN Center, Faculty of Agriculture, Ain Shams University, Cairo, Egypt.
as §1, with “To” for “Antibacterial properties of the synthesized compounds (3a–k, 5a–f, 7a–c, 9a–c, 11a–f, 13 and 15) were screened against Gram-positive (Staphylococcus aureus ATCC 6538, Bacillus subtilis ATCC 6633) and Gram-negative (Pseudomonas aeruginosa ATCC 15,692 and Escherichia coli ATCC 47076) bacteria utilizing the standard technique. Linezolid was used as a standard reference/drug in the current study. The tested bacterial strains were obtained from MERCIN Center, Faculty of Agriculture, Ain Shams University, Cairo, Egypt. To”

[4] = test system: Escherichia coli ATCC 47076; experiment: as above; assay type: cell-based
Description: as §2, §3
as §1, with “To” for “Antibacterial properties of the synthesized compounds (3a–k, 5a–f, 7a–c, 9a–c, 11a–f, 13 and 15) were screened against Gram-positive (Staphylococcus aureus ATCC 6538, Bacillus subtilis ATCC 6633) and Gram-negative (Pseudomonas aeruginosa ATCC 15,692 and Escherichia coli ATCC 47076) bacteria utilizing the standard technique. Linezolid was used as a standard reference/drug in the current study. The tested bacterial strains were obtained from MERCIN Center, Faculty of Agriculture, Ain Shams University, Cairo, Egypt. To”

[5] = test system: Pseudomonas aeruginosa ATCC 15692; experiment: as above; assay type: cell-based
Description: as §2, §3
as §1, with “To” for “Antibacterial properties of the synthesized compounds (3a–k, 5a–f, 7a–c, 9a–c, 11a–f, 13 and 15) were screened against Gram-positive (Staphylococcus aureus ATCC 6538, Bacillus subtilis ATCC 6633) and Gram-negative (Pseudomonas aeruginosa ATCC 15,692 and Escherichia coli ATCC 47076) bacteria utilizing the standard technique. Linezolid was used as a standard reference/drug in the current study. The tested bacterial strains were obtained from MERCIN Center, Faculty of Agriculture, Ain Shams University, Cairo, Egypt. To”

[6] = test system: Staphylococcus aureus ATCC 6538; experiment: as above; assay type: cell-based; conditions: Staphylococcus aureus
Description: as §2, §3
as §1, with “To” for “Antibacterial properties of the synthesized compounds (3a–k, 5a–f, 7a–c, 9a–c, 11a–f, 13 and 15) were screened against Gram-positive (Staphylococcus aureus ATCC 6538, Bacillus subtilis ATCC 6633) and Gram-negative (Pseudomonas aeruginosa ATCC 15,692 and Escherichia coli ATCC 47076) bacteria utilizing the standard technique. Linezolid was used as a standard reference/drug in the current study. The tested bacterial strains were obtained from MERCIN Center, Faculty of Agriculture, Ain Shams University, Cairo, Egypt. To”

[7] = ATCC6633, 24 h, Mueller–Hinton broth, 37 °C, 24 h, read-out: MIC, μg/mL ± SE, B. Subtilis (ATCC 6633)
[8] = ATCC47076, Mueller–Hinton broth, 37 °C, 24 h, read-out: MIC, μg/mL ± SE, E. Coli (ATCC 47076)
[9] = ATCC47076, value in parentheses, read-out: MIC (μmol), E. Coli (ATCC 47076) (converted)
[10] = ATCC15692, Mueller–Hinton broth, 37 °C, 24 h, read-out: MIC, μg/mL ± SE, P. Aeruginosa (ATCC 15692)
[11] = ATCC15692, value in parentheses, read-out: MIC (μmol), P. Aeruginosa (ATCC 15692) (converted)
[12] = ATCC6538, 24 h, Mueller–Hinton broth, 37 °C, 24 h, read-out: MIC, μg/mL ± SE, S. Aureus (ATCC 6538)
[13] = ATCC6538, value in parentheses, read-out: MIC (μmol), S. Aureus (ATCC 6538) (converted)

Row | melting point | MIC ([3]; ATCC6633, as quoted in running text, read-out: MIC against B. subtilis) | MIC ([3]; ATCC6633, value in parentheses, read-out: MIC (μmol), B. Subtilis (ATCC 6633) (converted)) | MIC ([6]; ATCC6538, as quoted in running text, read-out: MIC against S. aureus) | MIC [6, 13] | MIC ([5]; ATCC15692, read-out: MIC against P. aeruginosa) | Compound | MIC [1] | MIC [2] | MIC [3, 7] | MIC [4, 8] | MIC [4, 9] | MIC [5, 10] | MIC [5, 11] | MIC [6, 12]
1 |  |  |  |  |  |  | CC(C)[C@H](NC(=O)OC(C)(C)C)C(=O)NC[C@H]1CN(c2ccc(N3CCOCC3)c(F)c2)C(=O)O1 [Compound 3h, Tert-butyl ((S)-1-((((S)-3-(3-fluoro-4-morpholinophenyl)-2-oxooxazolidin-5-yl)methyl)amino)-3-methyl-1-oxobutan-2-yl)carbamate] | 64.7 µM (≈ 32 µg/mL) | 64.7 µM (≈ 32 µg/mL) | 32 ± 0.7 µg/mL | 32 ± 1.1 µg/mL | 64.7 µM | 32 ± 0.5 µg/mL | 64.7 µM | 32 ± 1.3 µg/mL
2 | 195 to 197 °C | 2.33 to 2.5 µM | 2.33 µM | 9.34 to 10 µM | 9.34 µM |  | CNc1ccc(C(=O)NC[C@H]2CN(c3ccc(N4CCOCC4)c(F)c3)C(=O)O2)cc1 [Compound 5e, (S)-N-((3-(3-Fluoro-4-morpholinophenyl)-2-oxooxazolidin-5-yl)methyl)-4-(methylamino) benzamide] |  |  | 1 ± 0.1 µg/mL | 32 ± 1.6 µg/mL | 74.7 µM | 32 ± 2.2 µg/mL | 74.7 µM | 4 ± 0.2 µg/mL
3 | 198 to 200 °C |  |  |  | 20 µM | 20 µM | O=C(NC[C@H]1CN(c2ccc(N3CCOCC3)c(F)c2)C(=O)O1)c1ccncc1 [Compound 7a, (S)-N-((3-(3-Fluoro-4-morpholinophenyl)-2-oxooxazolidin-5-yl)methyl)isonicotin-amide] | 5 µM (≈ 2 µg/mL) |  | 2 ± 0.2 µg/mL | 32 ± 0.9 µg/mL | 79.9 µM | 8 ± 0.1 µg/mL | 20 µM | 8 ± 0.3 µg/mL
4 |  |  |  |  |  |  | COc1cc(CNC[C@H]2CN(c3ccc(N4CCOCC4)c(F)c3)C(=O)O2)cc(OC)c1 [Compound 11f, (S)-5-[{(3,5-Dimethoxybenzyl)amino}methyl]-3-(3-fluoro-4-morpholinophenyl) oxazo-lidine-2-one] | 71.8 µM (≈ 32 µg/mL) | 71.8 µM (≈ 32 µg/mL) | 32 ± 0.3 µg/mL | 32 ± 0.8 µg/mL | 71.8 µM | 32 ± 1.9 µg/mL | 71.8 µM | 32 ± 1.7 µg/mL
5 |  |  |  |  |  |  | O=C1O[C@@H](CNCc2ccc(C(F)(F)F)cc2)CN1c1ccc(N2CCOCC2)c(F)c1 [Compound 11c, (S)-3-(3-Fluoro-4-morpholinophenyl)-5-[{(4-(trifluoromethyl)benzyl}amino]methyl) oxazolidin-2-one] | 35.3 µM (≈ 16 µg/mL) | 70.6 µM (≈ 32 µg/mL) | 16 ± 0.4 µg/mL | 32 ± 0.9 µg/mL | 70.6 µM | 64 ± 1.5 µg/mL | 141 µM | 32 ± 0.8 µg/mL
6 |  |  |  |  |  |  | CC(C)[C@H](NC(=O)OCc1ccccc1)C(=O)NC[C@H]1CN(c2ccc(N3CCOCC3)c(F)c2)C(=O)O1 [Compound 3c, Benzyl ((S)-1-((((S)-3-(3-fluoro-4-morpholinophenyl)-2-oxooxazolidin-5-yl)methyl)amino)-3-methyl-1-oxobutan-2-yl)carbamate] | 60.5 µM (≈ 32 µg/mL) | 60.5 µM (≈ 32 µg/mL) | 32 ± 2.7 µg/mL | 32 ± 1.6 µg/mL | 60.5 µM | 64 ± 2.9 µg/mL | 121 µM | 32 ± 1.1 µg/mL
7 |  |  |  |  |  |  | O=C1O[C@@H](CNCc2cccc(Cl)c2)CN1c1ccc(N2CCOCC2)c(F)c1 [Compound 11d, (S)-5-[{(3-Chlorobenzyl)amino}methyl]-3-(3-fluoro-4-morpholinophenyl) oxazolidin-2-one] | 76.2 µM (≈ 32 µg/mL) | 76.2 µM (≈ 32 µg/mL) | 32 ± 1.2 µg/mL | 32 ± 2.1 µg/mL | 76.2 µM | 32 ± 1.7 µg/mL | 76.2 µM | 32 ± 1 µg/mL

Row | Compound | melting point | MIC ([3]; ATCC6633, as quoted in running text, read-out: MIC against B. subtilis) | MIC ([3]; ATCC6633, value in parentheses, read-out: MIC (μmol), B. Subtilis (ATCC 6633) (converted)) | MIC ([6]; ATCC6538, as quoted in running text, read-out: MIC against S. aureus) | MIC [6, 13] | MIC ([5]; ATCC15692, read-out: MIC against P. aeruginosa) | MIC [1] | MIC [2] | MIC [3, 7] | MIC [4, 8] | MIC [4, 9] | MIC [5, 10] | MIC [5, 11] | MIC [6, 12]
8 | CC(C)(C)OC(=O)N[C@@H](Cc1ccccc1)C(=O)NC[C@H]1CN(c2ccc(N3CCOCC3)c(F)c2)C(=O)O1 [Compound 3j, Tert-butyl ((S)-1-((((S)-3-(3-fluoro-4-morpholinophenyl)-2-oxooxazolidin-5-yl)methyl)amino)-1-oxo-3-phenylpropan-2-yl)carbamate] | 69 to 71 °C |  |  |  |  |  | 59 µM (≈ 32 µg/mL) | 118 µM (≈ 64 µg/mL) | 32 ± 1.3 µg/mL | 32 ± 0.9 µg/mL | 59 µM | 64 ± 1.8 µg/mL | 118 µM | 64 ± 2.5 µg/mL
